Measured values from US20040072146A1, “Mechanism of mitochondrial membrane permeabilization by HIV-1 Vpr, mimetics of Vpr and methods of screening active molecules having the ability to alter and/or prevent and/or mimic the interaction of Vpr with ANT” (priority 2000, published 2004).
Entries after “also recorded” stand apart in the source; their conditions may differ. Where a SMILES comes first, the peptide text is derived from it.

What was measured:
biotinylated Vpr52-96 = biotinylated Vpr52-96 (Human immunodeficiency virus type 1 group M subtype B, UniProt P69726); format: binding, HIV-1
ANT-proteoliposomes = target: T1, ANT-proteoliposomes (Rattus norvegicus, UniProt Q05962); test: FITC-labeled Vpr52-96 binding onto ANT-liposomes and plain liposomes; settings: BA 50 μM; Bcl-2 800 nM
T1 construct: ANT is purified from rat heart and reconstituted in liposomes; from tissue; host or cells: rat heart (ANT)
T1 sequence (Q05962 1-298): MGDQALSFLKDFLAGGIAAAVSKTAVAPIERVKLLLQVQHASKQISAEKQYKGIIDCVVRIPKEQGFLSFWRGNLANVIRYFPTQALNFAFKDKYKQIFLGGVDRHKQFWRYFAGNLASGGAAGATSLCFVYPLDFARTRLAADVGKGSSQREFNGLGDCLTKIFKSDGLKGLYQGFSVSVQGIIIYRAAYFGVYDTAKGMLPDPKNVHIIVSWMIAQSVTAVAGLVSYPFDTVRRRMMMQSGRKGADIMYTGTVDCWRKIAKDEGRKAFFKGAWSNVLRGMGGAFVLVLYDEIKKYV
Experimental: A. Dose-response curve of FITC-labeled Vpr52-96 binding onto ANT-liposomes and plain liposomes.
B. Binding of FITC-Vpr52-96 (2 μM) to plain liposomes, ANT-proteoliposomes, in the presence or absence of BA (50 μM).

purified mitochondria [1] = test: Inner versus outer mitochondrial membrane permeabilization (NADH oxidation, cytochrome c oxidation); format: biochemical; settings: for prevention of Vpr-mediated inner MMP to NADH: preincubation 10 min, Bcl-2 0.8 μM, BA 10 μM
Experimental: A. Respirometry performed after addition of NADH and Vpr52-96 (1 μM). Numbers along the traces are nmol of O2 consumed min^−1 mg^−1 protein.
B. Kinetics of Vpr52-96 induced inner membrane permeabilization to NADH and outer membrane permeabilization to reduced cytochrome c. Oxygen consumption was determined in the presence of 2 mM NADH (full squares) as in A (traces C-D) and cytochrome c (15 μM) oxidation (open circles) was spectrofluorometrically measured, as described Rustin et al., 1994). The 100% value of cytochrome c oxidation was determined by addition of 2.5 mM laurylmaltoside.
Oxygen consumption of purified mitochondria was measured as in FIG. 5 after addition of succinate+CCCP or NADH, as indicated.

isolated mitochondria = test: Electron microscopy of isolated mitochondria (matrix swelling); format: biochemical; settings: pre-incubation of mitochondria
Text: C. Ultrastructural effects of Vpr on isolated mitochondria.

purified mitochondria [2] = test: ΔΨm dissipation in purified mitochondria (JC-1 flow cytometry); format: biochemical; settings: 5 μM CsA, 50 μM BA, 0.8 μM Bcl-2, 2 μM PA10
Experimental: Numbers indicate the percentage of JC-1^high and JC-1^low mitochondria among ˜10^4 events.
E. Quantitation of the frequency of JC-1^low mitochondria (X±SD, n=5) after incubation with different Vpr-derived peptides.

purified mitochondria [3] = test: FITC-Vpr52-96 binding to purified mitochondria; settings: pre-incubation of the organelles
Experimental: Mitochondria were left unstained (insert in Co.) or exposed to the ΔΨm-insensitive mitochondrial dye MitoTracker® Green (75 nM), alone (MTG) or with 0.5 μM of FITC-Vpr52-96; green fluorescence), in combination with the ΔΨm-sensitive mitochondrial dye MitoTracker® Red (CMXRos; red Fluorescence) followed by cytofluorometric two-color analysis. Numbers indicate the percentage of mitochondria in each quadrant.
Mitochondria were incubated with the indicated inhibitors, and then exposed for 30 min at RT with 5 μM biotinylated Vpr52-96. Mitochondria were lysed either after incubation with biotinylated Vpr52-96 (upper panel) or lysed before (lower panel) with Tris/HCl as described in materials and methods. Biotinylated Vpr52-96 complexed with its mitochondrial ligands was retained on avidin-agarose and subjected to immunoblot detection of ANT.

biotin-Vpr52-96 (HIV-1) = biotin-Vpr52-96 (HIV-1) (UniProt P12520); test: SPR, Langmuir isotherm, peptide on biotinylated Vpr52-96
ANT = target: T2, ANT (Rattus norvegicus, UniProt Q05962); test: Single channel recordings in planar lipid bilayers; format: biochemical
T2 construct: from tissue
T2 sequence (Q05962 whole entry, looked up): T1 sequence (Q05962 1-298)
Experimental: FIG. 3 presents electrophysiological properties of Vpr52-96 and ANT in planar lipid bilayers. Current fluctuations of Vpr52-96 (80 nM, +150 mV), Vpr52-96(0.4 nM, +100 mV), ANT (1 nM, +110 mV) and Vpr52-96+ANT (0.4:1 nM, +115 mV) and associated histograms (right) of conductance levels are shown.
Current fluctuations of Vpr52-96 (80 nM, +150 mV), Vpr52-96 (0.4 nM, +100 mV), ANT (1 nM, +110 mV) and Vpr52-96+ANT (0.4:1 nM, 115 mV) after incorporation into synthetic membranes. Single channel recordings were performed using the “Tip-Dip” technique. The recordings shown are representative for at least three independent determinations.
B. Statistical analysis of conductances obtained in A. Results were expressed as current distributions at different voltages. Conductances (γ; in picosiemens, pS) are calculated by division of current by voltage.

COS cells = test: ΔΨm dissipation in intact microinjected cells (JC-1); format: cell-based
Text: A. Vpr52-96-induced ΔΨm dissipation induced in intact cells.

purified mitochondria [4] = test: Respirometry of purified mitochondria, respiratory control; format: biochemical; settings: for effect on respiratory control (RC): 1 μM peptide, 10 min
Experimental: A. Oxygen consumption curves after addition of the indicated agents. Trace a: control mitochondria (no pretreatment). Trace b: mitochondria pretreated for 10 min with 1 μM Vpr52-96. Numbers along the traces are nmol of O2 consumed min^−1 mg^31 1 protein.
B. Respiratory control (RC) values calculated by dividing oxygen consumption in the presence of CCCP by that measured with oligomycin (determined as in A), 10 min after addition of 1 μM of Vpr-derived peptides (mean values of 3 determinations).

[5] = target: biotin-Vpr52-96 (HIV-1), P12520; test: SPR, immobilised biotin-Vpr52-96, detergent-solubilized ANT as analyte
[6] = target: T3, adenine nucleotide translocator (ANT), native purified protein (rat), Q05962; test: cell-based or functional assay
T3 chain: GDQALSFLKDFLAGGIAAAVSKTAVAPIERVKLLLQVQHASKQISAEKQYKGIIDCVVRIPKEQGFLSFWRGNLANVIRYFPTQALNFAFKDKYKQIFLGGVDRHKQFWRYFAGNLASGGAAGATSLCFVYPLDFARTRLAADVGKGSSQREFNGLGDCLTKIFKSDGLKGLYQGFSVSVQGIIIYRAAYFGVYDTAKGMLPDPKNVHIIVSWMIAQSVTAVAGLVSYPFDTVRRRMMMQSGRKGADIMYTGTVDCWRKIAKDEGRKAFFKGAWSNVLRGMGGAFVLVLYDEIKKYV

[7] = target: T4, adenine nucleotide translocator (ANT), native purified protein (rat, UniProt Q05962 2-298); test: not stated (summary paragraph)
T4 construct: mature; also called adenine nucleotide translocase; ADP/ATP carrier
T4 sequence: T3 chain

## C[C@H](NC(=O)[C@H](Cc1ccccc1)NC(=O)[C@H](Cc1ccc(O)cc1)NC(=O)[C@H](CCCNC(=N)N)NC(=O)[C@H](Cc1c[nH]c2ccccc12)NC(=O)[C@H](Cc1ccccc1)NC(=O)[C@H](CCC(N)=O)NC(=O)[C@@H](NC(=O)[C@H](CCCNC(=N)N)NC(=O)[C@H](CCCCN)NC(=O)[C@@H](N)CC(=O)O)[C@@H](C)O)C(=O)NCC(=O)N[C@@H](CC(N)=O)C(=O)O [ANT104-116] (H-DKRTQFWRYFAGN-OH; N-terminus and C-terminus assumed)
Biotinylated Vpr52-96; read-out: calculated KD of binding of ANT104-116 to biotinylated Vpr52-96, Langmuir isotherm
  Kd: 35 µM

## CO[C@H](C/C=C\C=C\CC/C=C/C[C@H](C)/C=C/C(=C\C(=O)O)CC(=O)O)/C(C)=C\C=C(/C)C(=O)O [bongkrekic acid, reference compound]
ANT-proteoliposomes
  effect on Vpr52-96 binding to ANT liposomes (membrane-associated ANT): inhibited
Purified mitochondria [1]
  prevention of Vpr-mediated inner MMP to NADH: prevented the Vpr-mediated inner MMP to NADH
Isolated mitochondria
  inhibition of Vpr-induced matrix swelling: inhibited
Purified mitochondria [2]
  inhibition of Vpr-induced ΔΨm loss in purified mitochondria: inhibited
Purified mitochondria [3]
  effect on binding of Vpr52-96 to purified mitochondria: partially reduced

## C=C(C)[C@H]1Cc2c(ccc3c2O[C@@H]2COc4cc(OC)c(OC)cc4[C@@H]2C3=O)O1 [rotenone, reference compound]
Purified mitochondria [1]
  sensitivity of Vpr-stimulated, NADH-dependent O2 consumption: fully sensitive to rotenone

## ANT-2-derived peptide ANT104-116
biotin-Vpr52-96 (HIV-1)
  Kd: 35 µM

## Bax: pro-apoptotic Bcl-2 family protein added to Vpr52-96-ANT channels
ANT; Vpr52-96+ANT+Bax 0.4:1:0.3 nM, +75 mV
  mean conductance of Vpr52-96-ANT channels with Bax: 245±2 S

## Bcl-2: recombinant human Bcl-2 protein
Biotinylated Vpr52-96
  binding to Vpr52-96: did not bind Vpr52-96
ANT-proteoliposomes
  effect on Vpr52-96 binding to ANT liposomes (membrane-associated ANT): reduced Vpr52-96 binding
ANT; Vpr52-96+ANT+Bcl-2 0.4:1:1 nM
  effect on formation of Vpr52-96 induced channels in ANT-containing lipid bilayers: abolished the formation of Vpr52-96 induced channels in ANT-containing lipid bilayers
Purified mitochondria [1]
  prevention of Vpr-mediated inner MMP to NADH: prevented the Vpr-mediated inner MMP to NADH
Isolated mitochondria
  inhibition of Vpr-induced matrix swelling: inhibited; also recorded: strongly reduced
Purified mitochondria [2]
  inhibition of Vpr-induced ΔΨm loss in purified mitochondria: inhibited; also recorded: strongly reduced
COS cells; microinjected, Bcl-2 10 μM, PA10 2 μM
  prevention of Vpr effects on intact cells: prevented
Purified mitochondria [3]
  effect on binding of Vpr52-96 to purified mitochondria: failed to impair the binding of Vpr52-96 to purified mitochondria

## HFRIGCRHSRIG [Vpr71-82]
Purified mitochondria [4]
  effect on respiratory control (RC): also reduced the RC values

## Vpr: proapoptotic 96 amino acid HIV-1 regulatory protein, full length Vpr1-96 (DTWAGVEAIIRILQQLLFIHFRIGCRHSRIGVTRQRRARNGASRS)
Purified mitochondria [4]
  effect on respiratory control (RC): also reduced the RC values
Purified mitochondria [4]; short-term incubation
  oxidation rate accompanying loss of RC: not associated with a significant decrease of the oxidation rate
COS cells; extracellular addition
  ΔΨm loss in intact cells: induced a rapid ΔΨm loss, before nuclear condensation occurred

B1: adenine nucleotide translocator (ANT), native purified protein, Q05962 2-298 (protein)
chain: T3 chain
[5]
  Kd: 0.0097 µM

B2: Vpr52-96, P12520 52-96 (peptide)
peptide: DTWAGVEAIIRILQQLLFIHFRIGCRHSRIGVTRQRRARNGASRS
modifications: not checked
[6]
  conductance of Vpr52-96-ANT channels in the presence of Bax: 245 pS
  conductance of channels formed by ANT and Vpr52-96 in planar lipid bilayers: 190 pS

B3: HIV-1 Vpr (other)
chain: B2 peptide
notes: also called viral protein R
[7]
  Kd: 0.001 µM
